# Data as given in paper PMC5653977 (EMBO Molecular Medicine, 2017).
# What was measured:
# ERBB4_1-685 dimers = biological target: T1, ERBB4_1-685 dimers (Homo sapiens, UniProt Q15303); assay: Truncated ERBB4 (amino acids 1-685) dimerization split TEV assay; conditions: PC12 cells, 10 ng/ml EGFld
# T1 sequence (Q15303 26-685) 1: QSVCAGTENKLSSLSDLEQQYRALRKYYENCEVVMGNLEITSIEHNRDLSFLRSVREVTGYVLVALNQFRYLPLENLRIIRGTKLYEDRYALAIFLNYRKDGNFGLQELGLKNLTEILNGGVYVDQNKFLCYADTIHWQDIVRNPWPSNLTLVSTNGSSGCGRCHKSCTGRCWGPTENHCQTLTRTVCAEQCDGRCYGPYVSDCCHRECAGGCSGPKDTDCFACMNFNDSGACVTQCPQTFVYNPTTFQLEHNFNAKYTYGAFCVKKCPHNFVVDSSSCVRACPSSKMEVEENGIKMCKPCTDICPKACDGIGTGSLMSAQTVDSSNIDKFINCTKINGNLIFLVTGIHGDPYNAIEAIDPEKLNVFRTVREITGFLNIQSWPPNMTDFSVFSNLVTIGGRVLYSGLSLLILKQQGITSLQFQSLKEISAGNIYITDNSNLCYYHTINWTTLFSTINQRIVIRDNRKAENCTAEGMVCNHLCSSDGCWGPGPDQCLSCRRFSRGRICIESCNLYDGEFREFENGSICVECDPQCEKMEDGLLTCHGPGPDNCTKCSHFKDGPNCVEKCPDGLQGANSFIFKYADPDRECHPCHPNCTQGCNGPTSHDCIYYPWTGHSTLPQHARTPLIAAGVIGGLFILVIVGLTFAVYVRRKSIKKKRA
# T1 sequence (Q15303 26-685) 2: T1 sequence (Q15303 26-685) 1
# Method: Individually re‐screened candidates were validated using a dose–response assay. PC12 cells were batch‐transfected as described in the section “Transfection of cells”, manually plated, and incubated for 24 h at 37°C and 5% CO2. Candidate small molecules were prepared in a series of dilutions using DMSO as diluent and ranging from 0.0001 to 100 μM at final concentrations, thus covering at least five orders of magnitude. Candidate dilutions were added, followed by the addition of 10,000 Nrg1‐expressing cells in 100 μl volume 30 min later. Cells were lysed in 40 μl Passive Lysis Buffer and analyzed in a Dual Luciferase Assay. Data were analyzed in Excel and GraphPad Prism. For single‐culture assays that used EGFld as stimulus, 100 μl assay medium containing EGFld (f.c. 10 ng/ml) was administered. […] Dose–response assays were run in six replicates per concentration and repeated at least two times. Data are shown as mean, and error bars represent SEM.
# [1] = tested on: pyramidal neurons of the prefrontal cortex; assay: Evoked inhibitory postsynaptic currents (eIPSCs) in acute prefrontal cortex slices; format: cell-based, mouse; conditions: 5 μM in the presence of canrenone (10 μM)
# Method: 300‐μm‐thick transverse slices comprising the medial prefrontal cortex (mPFC) area were prepared from 7‐ to 8‐week‐old C57Bl/6 mice as described previously (Teng et al, 2013; Agarwal et al, 2014). All recordings were performed in cortical layer V projection neurons. The bath solution consisted of oxygenated artificial cerebrospinal fluid (ACSF) containing NaCl 126 mM, KCl 3 mM, NaH2PO4 1.25 mM, MgSO4 1 mM, NaHCO3 26 mM, CaCl2 2 mM, glucose 10 mM, and the pH 7.2 adjusted with NaOH. Spontaneous GABAergic inhibitory postsynaptic currents (sIPSC) and evoked GABAergic inhibitory postsynaptic currents (eIPSC) were recorded at a holding potential of −70 mV in the presence of 6‐cyano‐7‐nitroquinoxaline‐2,3‐dione (CNQX, 10 μM) and DL‐2‐amino‐5‐phosphonovaleric acid (D‐APV, 50 μM). Glass pipettes were filled with the solution containing: KCl 140 mM, MgCl2 2 mM, CaCl2 1 mM, Na2GTP 0.5 mM, Na2ATP 4 mM, EGTA 10 mM, HEPES 10 mM. Patches with a series resistance of > 25 MΩ, a membrane resistance of < 0.8 GΩ, or leak currents of > 150 pA were excluded. Biphasic rectangular electric pulses (10 ms, 100–300 μA) were applied to layer I of the prelimbic area of mPFC through another glass pipette filled with ACSF. Synaptic currents were acquired at 20 kHz and filtered at 6 kHz, with a Digidata 1440 ADC‐converter coupled to a Multiclamp 700B amplifier (Molecular Devices, USA). […]
# Nrg1-tg and wt mice [2] = assay: Y-maze test; format: in vivo, mouse; conditions: 50 mg/kg s.c. daily
# Method: (§1) For behavioral testing, age‐matched male mice (8–16 weeks) on C57Bl/6 background that constitutively overexpress the 2xHA‐tagged Nrg1 type III β1a isoform (Nrg1‐tg) under the control of the mouse Thy1.2 promoter (Velanac et al, 2012) and their wild‐type (wt) littermates as controls were used. Animals were group‐housed in the same ventilated sound‐attenuated rooms under a 12‐h light/12‐h dark schedule (lights on at 8:00 am) at an ambient temperature of 21°C with food and water available ad libitum. One week prior to experiments, mice were separated into single cages and habituated to the experimental rooms. To minimize the influence of the circadian rhythm on drug actions, the treatment groups were analyzed at balanced time points during the light phase. […] All animal experiments were conducted in accordance with NIH principles of laboratory animal care and were approved by the Government of Lower Saxony, Germany, in accordance with the German Animal Protection Law.
# (§2) Treatment was continued throughout the behavioral analysis period. To avoid injection‐induced stress prior to behavioral testing, mice were injected in the afternoon, after the entire cohort has completed the behavioral paradigm.
# [3] = set-up: method as in Zhou et al, 2011; conditions: ref Zhou et al, 2011; cited from earlier work
# ERBB4 [4] = biological target: T2, ERBB4 (Homo sapiens, UniProt Q15303); assay: Western blot of ERBB4 phosphorylation in transfected PC12 cells; format: cell-based; conditions: PC12 cells transfected with ERBB4-NTEV-tevS-GV, 10 ng/ml EGFld, 10 μM, 1 h
# T2 sequence (Q15303 26-1308): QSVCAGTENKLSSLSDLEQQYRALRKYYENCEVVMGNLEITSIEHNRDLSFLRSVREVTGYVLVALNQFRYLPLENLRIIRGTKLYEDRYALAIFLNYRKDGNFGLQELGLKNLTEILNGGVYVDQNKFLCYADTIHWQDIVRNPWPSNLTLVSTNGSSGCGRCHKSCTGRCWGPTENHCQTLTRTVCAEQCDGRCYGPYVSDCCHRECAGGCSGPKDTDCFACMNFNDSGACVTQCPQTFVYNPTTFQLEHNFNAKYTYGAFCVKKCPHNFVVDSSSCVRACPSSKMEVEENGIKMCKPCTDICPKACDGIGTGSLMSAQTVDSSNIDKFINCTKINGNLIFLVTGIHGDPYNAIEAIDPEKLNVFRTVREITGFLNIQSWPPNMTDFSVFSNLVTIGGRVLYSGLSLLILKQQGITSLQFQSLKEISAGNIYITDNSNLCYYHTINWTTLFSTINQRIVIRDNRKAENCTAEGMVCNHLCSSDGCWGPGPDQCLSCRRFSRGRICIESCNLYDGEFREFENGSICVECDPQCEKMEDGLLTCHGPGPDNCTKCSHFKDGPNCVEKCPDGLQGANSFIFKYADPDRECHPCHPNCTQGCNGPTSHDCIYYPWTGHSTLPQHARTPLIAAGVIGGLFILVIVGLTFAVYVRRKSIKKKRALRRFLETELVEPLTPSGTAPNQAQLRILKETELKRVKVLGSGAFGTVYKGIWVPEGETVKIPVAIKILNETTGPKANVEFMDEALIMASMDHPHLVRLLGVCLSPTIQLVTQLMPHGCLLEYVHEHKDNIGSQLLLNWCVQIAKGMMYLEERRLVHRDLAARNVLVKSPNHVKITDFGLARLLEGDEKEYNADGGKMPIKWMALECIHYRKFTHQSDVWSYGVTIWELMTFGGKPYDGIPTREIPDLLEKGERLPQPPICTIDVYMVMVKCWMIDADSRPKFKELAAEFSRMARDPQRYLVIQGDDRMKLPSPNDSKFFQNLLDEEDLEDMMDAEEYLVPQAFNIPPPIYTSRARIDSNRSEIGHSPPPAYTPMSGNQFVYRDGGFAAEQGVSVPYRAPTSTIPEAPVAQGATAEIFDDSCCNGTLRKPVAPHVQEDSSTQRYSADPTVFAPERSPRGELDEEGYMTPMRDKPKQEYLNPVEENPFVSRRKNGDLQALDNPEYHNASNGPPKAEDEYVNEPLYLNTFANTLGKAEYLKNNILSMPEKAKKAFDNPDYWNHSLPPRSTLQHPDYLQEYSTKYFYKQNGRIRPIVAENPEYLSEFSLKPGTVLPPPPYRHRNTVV
# Method: After 24 h of expression, cells were treated as indicated and lysed in a 1% Triton‐X lysis buffer (50 mM Tris [pH 7.5], 150 mM NaCl, 1% Triton X‐100, 1 mM EGTA) supplemented with 10 mM NaF, 1 mM […], 1 mM ZnCl2 4.5 mM Na4P20_7, as phosphatase inhibitors, and the complete protease inhibitor cocktail (Roche).
# Each blot was replicated two times.
# Nrg1-tg and wt mice [5] = assay: Light-dark preference test; format: in vivo, mouse; conditions: 50 mg/kg s.c. daily
# Method: as §1, §2
# ERBB4 [6] = biological target: T2, ERBB4; assay: Western blot of ERBB4 phosphorylation in T-47D cells; conditions: 10 ng/ml EGFld, 10 μM compound, 5 min
# [7] = set-up: method as in Juruena et al, 2009; conditions: ref Juruena et al, 2009; cited from earlier work
# [8] = set-up: method as in Zhou et al, 2011; Rimmele et al, 2013; conditions: acute administration; ref Zhou et al, 2011; Rimmele et al, 2013; cited from earlier work
# [9] = tested on: pyramidal neurons of the prefrontal cortex; assay: Spontaneous inhibitory postsynaptic currents (sIPSCs) in acute prefrontal cortex slices; format: cell-based, mouse; conditions: 10 μM, bath application
# Method: 300‐μm‐thick transverse slices comprising the medial prefrontal cortex (mPFC) area were prepared from 7‐ to 8‐week‐old C57Bl/6 mice as described previously (Teng et al, 2013; Agarwal et al, 2014). All recordings were performed in cortical layer V projection neurons. The bath solution consisted of oxygenated artificial cerebrospinal fluid (ACSF) containing NaCl 126 mM, KCl 3 mM, NaH2PO4 1.25 mM, MgSO4 1 mM, NaHCO3 26 mM, CaCl2 2 mM, glucose 10 mM, and the pH 7.2 adjusted with NaOH. Spontaneous GABAergic inhibitory postsynaptic currents (sIPSC) and evoked GABAergic inhibitory postsynaptic currents (eIPSC) were recorded at a holding potential of −70 mV in the presence of 6‐cyano‐7‐nitroquinoxaline‐2,3‐dione (CNQX, 10 μM) and DL‐2‐amino‐5‐phosphonovaleric acid (D‐APV, 50 μM). Glass pipettes were filled with the solution containing: KCl 140 mM, MgCl2 2 mM, CaCl2 1 mM, Na2GTP 0.5 mM, Na2ATP 4 mM, EGTA 10 mM, HEPES 10 mM. Patches with a series resistance of > 25 MΩ, a membrane resistance of < 0.8 GΩ, or leak currents of > 150 pA were excluded. Biphasic rectangular electric pulses (10 ms, 100–300 μA) were applied to layer I of the prelimbic area of mPFC through another glass pipette filled with ACSF. Synaptic currents were acquired at 20 kHz and filtered at 6 kHz, with a Digidata 1440 ADC‐converter coupled to a Multiclamp 700B amplifier (Molecular Devices, USA). Data acquisition was performed using pClamp10 software (Molecular Devices). MiniAnalysis 6.0.9 (Synaptosoft Inc., Decatur, USA) and pClamp10.1 were used for amplitude and frequency analysis of sIPSCs and eIPSCs, respectively. Paired Student's t‐test was used for statistical analysis.
structure (smiles),measurement,setting,value
CC(=O)S[C@@H]1CC2=CC(=O)CC[C@]2(C)[C@H]2CC[C@@]3(C)[C@@H](CC[C@@]34CCC(=O)O4)[C@H]12 [Spironolactone],inhibitory effect on dimerization of truncated ERBB4,ERBB4_1-685 dimers,no inhibitory effect
same,eIPSC amplitude,[1],significantly increased
same,arm choices in the Y-maze (activity),Nrg1-tg and wt mice [2],There was no effect of treatment
same,working memory (alterations in the Y-maze),Nrg1-tg and wt mice [2]; Nrg1-tg mice,rescued these deficits
same,recent fear memory formation in mice,[3],impaired recent fear memory formation
same,ERBB4 phosphorylation levels at Tyr1056,ERBB4 [4],reduces but not abolishes the phosphorylation levels
same,time in the light compartment,Nrg1-tg and wt mice [5],spent more time in the light compartment
same,ERBB4 phosphorylation at Tyr1056 and Tyr1284,ERBB4 [6],reduced phosphorylation to intermediate levels
same,anxiety in a small group of patients suffering from bipolar disorder,[7],partially improved
same,memory retrieval in healthy human volunteers,[8],reduced memory retrieval
same,sIPSC amplitude,[9],increase
same,sIPSC frequency,[9],increase
